Laboratory results: patent publication US12655116B2, “Substituted isophthalic acid diamides” (Bayer Aktiengesellschaft, priority 2020, dated 2026)

Experiments:
[1] = test system: AVEFA; assay: Pre-emergence herbicidal action against AVEFA; format: in vivo, Avena fatua; conditions: 80 g/ha, pre-emergence
Procedure, shortened: (§1)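 Greenhouse pots of sandy loam held seeds covered with soil, onto which the compound was applied before emergence. An aqueous suspension or emulsion of WP or EC was used at 600 to 800 l/ha with 0.2% wetting agent. Percent damage was judged visually at 3 weeks.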

[2] = test system: VERPE; assay: Post-emergence herbicidal action against VERPE; format: in vivo, Veronica persica; conditions: 20 g/ha
Procedure, shortened: (§2)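 A WP or EC formulation diluted in water with 0.2% wetting agent was sprayed at 600 to 800 l/ha onto one-leaf-stage plants grown in sandy loam. About 3 weeks later, action was rated visually in percent, 100% being dead plants.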

[3] = test system: MATIN; assay: Post-emergence herbicidal action against MATIN; format: in vivo, Matricaria inodora; conditions: dosage 20 g/ha
Procedure, shortened: as §2

[4] = test system: VERPE; assay: Pre-emergence herbicidal action against VERPE; format: in vivo, Veronica persica
Procedure, shortened: as §1

[5] = test system: ABUTH; assay: Pre-emergence herbicidal action against ABUTH; format: in vivo, Abutilon theophrasti; conditions: for Pre-emergence action against ABUTH (herbicidal activity): 80 g/ha, scored visually after 3 weeks vs untreated controls (100% = plants have died, 0% = like control plants); for Pre-emergence action against ABUTH (herbicidal activity in percent): dosage 20 g/ha, scored visually after 3 weeks vs untreated controls, 100% = plants have died, 0% = like control plants
Procedure, shortened: as §1

[6] = test system: PHBPU; assay: Post-emergence herbicidal action against PHBPU; format: in vivo, Pharbitis purpurea
Procedure, shortened: as §2

[7] = test system: ALOMY; assay: Post-emergence herbicidal action against ALOMY; format: in vivo, Alopecurus myosuroides; conditions: dosage 20 g/ha, visual assessment about 3 weeks after treatment vs untreated controls
Procedure, shortened: as §2

[8] = test system: ALOMY; assay: Pre-emergence herbicidal action against ALOMY; format: in vivo, Alopecurus myosuroides; conditions: 80 g/ha, pre-emergence, scored visually after 3 weeks vs untreated controls (100% = plants have died, 0% = like control plants)
Procedure, shortened: as §1

[9] = test system: ECHCG; assay: Pre-emergence herbicidal action against ECHCG; format: in vivo, Echinochloa crus-galli; conditions: 80 g/ha
Procedure, shortened: as §1

[10] = test system: LOLRI; assay: Pre-emergence herbicidal action against LOLRI; format: in vivo, Lolium rigidum; conditions: 80 g/ha
Procedure, shortened: as §1

[11] = test system: AMARE; assay: Post-emergence herbicidal action against AMARE; format: in vivo, Amaranthus retroflexus; conditions: 20 g/ha, visual assessment about 3 weeks after treatment, 100% = plants have died, 0% = like control plants
Procedure, shortened: as §2

[12] = test system: DIGSA; assay: Post-emergence herbicidal action against DIGSA; format: in vivo, Digitaria sanguinalis; conditions: for Post-emergence action against DIGSA in %: 5 g/ha; for Post-emergence action against DIGSA: 20 g/ha
Procedure, shortened: as §2

[13] = test system: AMARE; assay: Pre-emergence herbicidal action against AMARE; format: in vivo, Amaranthus retroflexus
Procedure, shortened: as §1

[14] = test system: ECHCG; assay: Post-emergence herbicidal action against ECHCG; format: in vivo, Echinochloa crus-galli
Procedure, shortened: as §2

[15] = test system: DIGSA; assay: Pre-emergence herbicidal action against DIGSA; format: in vivo, Digitaria sanguinalis
Procedure, shortened: as §1

[16] = test system: MATIN; assay: Pre-emergence herbicidal action against MATIN; format: in vivo, Matricaria inodora
Procedure, shortened: as §1

[17] = test system: POLCO; assay: Pre-emergence herbicidal action against POLCO; format: in vivo, Polygonum convolvulus; conditions: dosage 80 g/ha
Procedure, shortened: as §1

[18] = test system: VIOTR; assay: Pre-emergence herbicidal action against VIOTR; format: in vivo, Viola tricolor
Procedure, shortened: as §1

[19] = test system: SETVI; assay: Post-emergence herbicidal action against SETVI; format: in vivo, Setaria viridis
Procedure, shortened: as §2

[20] = test system: PHBPU; assay: Pre-emergence herbicidal action against PHBPU; format: in vivo, Pharbitis purpurea
Procedure, shortened: as §1

[21] = test system: ABUTH; assay: Post-emergence herbicidal action against ABUTH; format: in vivo, Abutilon theophrasti; conditions: visual assessment about 3 weeks after treatment vs untreated controls
Procedure, shortened: as §2

[22] = test system: SETVI; assay: Pre-emergence herbicidal action against SETVI; format: in vivo, Setaria viridis; conditions: dosage 80 g/ha
Procedure, shortened: as §1

[23] = 20 g/ha, scored visually after 3 weeks vs untreated controls, 100% = plants have died, 0% = like control plants
[24] = 80 g/ha, scored visually after 3 weeks vs untreated controls (100% = plants have died, 0% = like control plants)

Row | Structure (SMILES) | Pre-emergence action against AVEFA in % [1] [%] | Post-emergence action against VERPE in % [2] [%] | Post-emergence action against MATIN in % [3] [%] | Pre-emergence action against VERPE in % ([4]; dosage 20 g/ha) [%] | Pre-emergence action against VERPE in % ([4]; dosage 80 g/ha) [%] | Pre-emergence action against ABUTH (herbicidal activity) [5] [%] | Pre-emergence action against ABUTH (herbicidal activity in percent) [5] [%] | Post-emergence action against PHBPU in % ([6]; dosage 5 g/ha) [%] | Post-emergence action against PHBPU in % ([6]; dosage 20 g/ha) [%] | Post-emergence action against ALOMY in % [7] [%] | Pre-emergence action against ALOMY (herbicidal activity) [8] [%] | Pre-emergence action against ECHCG in % [9] [%] | Pre-emergence action against LOLRI in % [10] [%] | Post-emergence action at 20 g/ha against AMARE in % [11] [%] | Post-emergence action against DIGSA in % [12] [%] | Post-emergence action against DIGSA [12] [%] | Pre-emergence action against AMARE in % [13, 23] [%] | Pre-emergence action against AMARE in % [13, 24] [%] | Post-emergence action against ECHCG in % ([14]; dosage 20 g/ha) [%] | Pre-emergence action against DIGSA in % ([15]; dosage 20 g/ha) [%] | also measured
1 | Cc1c(C(=O)Nc2nnnn2C)ccc(C(F)F)c1C(=O)NC(C)C1CC1 (stereo not shown) [Example 1-339] | 100 | 90 | 80 | 100 | 100 | 100 | 90 | 80 | 90 | 80 | 90 | 100 | 100 | 90 | 90 | 90 | 100 | 100 | 90 | 100 | Post-emergence action against ECHCG in % ([14]; dosage 5 g/ha): 90%; Pre-emergence action against DIGSA in % ([15]; dosage 80 g/ha): 100%; Pre-emergence action against MATIN in % ([16]; dosage 80 g/ha): 100%; Pre-emergence action against POLCO in % [17]: 80%; Pre-emergence action against VIOTR in % ([18]; dosage 20 g/ha): 100%; Pre-emergence action against VIOTR in % ([18]; dosage 80 g/ha): 100%; Post-emergence action against SETVI in % ([19]; dosage 5 g/ha): 80%; Post-emergence action against SETVI in % ([19]; dosage 20 g/ha): 90%; Pre-emergence action against PHBPU in % ([20]; dosage 20 g/ha): 100%; Pre-emergence action against PHBPU in % ([20]; dosage 80 g/ha): 100%
2 | CCn1nnnc1NC(=O)c1ccc(C(F)F)c(C(=O)NC(C)C2CC2)c1C (stereo not shown) [Example 2-339] | 80 | 80 | 80 | 80 | 100 | 100 | 100 | 90 | 90 | 80 | 90 | 100 | 80 | 90 | 80 | 90 | 100 | 100 | 90 | 100 | Post-emergence action against ABUTH in % ([21]; dosage 5 g/ha): 80%; Post-emergence action against ABUTH in % ([21]; dosage 20 g/ha): 80%; Pre-emergence action against SETVI in % [22]: 100%; Pre-emergence action against DIGSA in % ([15]; dosage 80 g/ha): 100%; Pre-emergence action against MATIN in % ([16]; dosage 20 g/ha): 100%; Pre-emergence action against MATIN in % ([16]; dosage 80 g/ha): 100%; Pre-emergence action against POLCO in % [17]: 80%; Pre-emergence action against VIOTR in % ([18]; dosage 20 g/ha): 100%; Pre-emergence action against VIOTR in % ([18]; dosage 80 g/ha): 100%; Post-emergence action against SETVI in % ([19]; dosage 20 g/ha): 100%; Pre-emergence action against PHBPU in % ([20]; dosage 80 g/ha): 80%
